Reference: US20090047704A1, “Combination of a Histological or Cytological Fixing Agent and One or More Photoactivatable Compounds of the Quinone Family, In Particular Hypericin, Hypocrellin A and Hypocrellin B” (NOVACYT, priority 2005, published 2009)
“Also recorded” adds a separate entry of the source.

What was measured:
Assay type in all cases: cell-based
Human glioblastoma cells = experiment: Microspectrofluorometer comparison of hypericin fluorescence in living versus fixed glioblastoma cells; conditions: 2 micromoles per ml hypericin in Sakomano cytological fixing agent, one hour
Procedure: Human glioblastoma cells are cultivated in a petri dish. Hypericin is placed in suspension in a solution of Sakomano cytological fixing agent, with a concentration of 2 micromoles per ml, four hours before the experiments. The fixing agent solution comprising hypericin is shielded from light. The cells of the glioblastoma are directly fixed by placing them in the solution of fixing agent prepared based on hypericin for one hour. Comparative tests are carried out using a microspectrofluorometer in order to compare the level of intensity of fluorescence and the quality of the fluorescence spectrum measured in cultures of identical living glioblastoma cells, incubated at the same concentration for one hour in the solution of Sakomano cytological fixing agent containing hypericin, and the fixed cells.

tumorous HeLa cells = experiment: Microspectrofluorometer measurement of hypericin marking in a fixed mixed cell suspension, tumorous cells; conditions: Sakomano fixing agent, 2 μm/ml, one hour, shielded from light
Source text: (§1) Cells from a line of epidermoid malphigian carcinoma of the cervix, of the type HeLa, are cultivated in a petri dish. They are then fixed in a cytological fixing agent of the Sakomano type which already includes normal epithelial cells from a cervical smear in order to verify the affinity of hypericin for the tumorous cells in a cell suspension containing several types of normal cells and tumorous cells. Hypericin is then placed in suspension for one hour in the cell suspension fixed at a concentration of 2 μm/ml and shielded from light. Tests are carried out using a microspectrofluorometer in order to compare the level of intensity of fluorescence and the quality of the fluorescence spectrum measured for the different cells of the suspension, incubated at the same concentration for one hour in the solution of Sakomano cytological fixing agent containing hypericin.

[1] = test system: normal epithelial cells from a cervical smear; experiment: Microspectrofluorometer measurement of hypericin marking in a fixed mixed cell suspension, normal cells; conditions: Sakomano fixing agent, 2 μm/ml, one hour, shielded from light
Source text: as §1

tumorous cells = experiment: Incorporation of hypericin by tumorous cells suspended in fixing agent solution; conditions: tumorous cells in suspension in fixing agent solution containing micromolar measures of hypericin
Source text: Since the liquid phase of the cell suspension practically no longer contains hypericin, it is possible to carry out a direct analysis of the cells (morphological and/or fluorescence emission analysis) without rinsing the cell suspension. This property therefore allows the cell/tissue preparation and the analysis of the cells to be automated.

Compound: Cc1cc(O)c2c(=O)c3c(O)cc(O)c4c5c(O)cc(O)c6c(=O)c7c(O)cc(C)c8c1c2c(c34)c(c78)c65 [hypericin, 1,3,4,6,8,13-hexahydroxy-10,11-dimethylphenanthro(1,10,9,8,opqra)perylene-7,14-dione]
- fluorescence spectrums, living cells versus fixed cells (Human glioblastoma cells): can be completely superimposed
- levels of intensity of the fluorescence, living cells versus fixed cells (Human glioblastoma cells): identical
- affinity of hypericin for tumorous cells (tumorous HeLa cells): great affinity
- localisation of hypericin in tumorous cells (tumorous HeLa cells): preferential perinuclear localisation; also recorded: very specific preferential perinuclear localisation
- affinity of hypericin for normal cells [1]: very low level of affinity; also recorded: low level of affinity
- localisation of hypericin in normal cells [1]: peripheral localisation in the region of the cell membrane
- incorporation of hypericin by the cells (tumorous cells): almost all of the hypericin is incorporated by the cells
